Assay results taken from ChEMBL document CHEMBL2413072, “Synthesis and in vitro anticancer studies of novel C-2 arylidene congeners of lantadenes” (2013).

What was measured:
Format in all cases: functional
HCT-116 [1] = test: Growth inhibition of human HCT116 cells assessed as growth inhibition at 10 uM by sulforhodamine B assay; details: read-out: GI
RXF 393 = test: Growth inhibition of human RXF393 cells assessed as growth inhibition at 10 uM by sulforhodamine B assay; details: read-out: GI
SR [2] = test: Growth inhibition of human SR cells assessed as growth inhibition at 10 uM by sulforhodamine B assay; details: read-out: GI
NCI-H460 [3] = test: Growth inhibition of human NCI-H460 cells assessed as growth inhibition at 10 uM by sulforhodamine B assay; details: read-out: GI
CCRF-CEM = test: Growth inhibition of human CCRF-CEM cells assessed as cell growth at 10 uM by sulforhodamine B assay; details: read-out: Activity
786-0 [4] = test: Growth inhibition of human 786-0 cells assessed as growth inhibition at 10 uM by sulforhodamine B assay; details: read-out: GI
COLO 205 = test: Growth inhibition of human COLO205 cells assessed as cell growth at 10 uM by sulforhodamine B assay; details: read-out: Activity
A549 = test: Growth inhibition of human A549/ATCC cells assessed as growth inhibition at 10 uM by sulforhodamine B assay; details: read-out: GI
SK-MEL-28 = test: Growth inhibition of human SK-MEL-28 cells assessed as growth inhibition at 10 uM by sulforhodamine B assay; details: read-out: GI
SNB-19 = test: Growth inhibition of human SNB19 cells assessed as cell growth at 10 uM by sulforhodamine B assay; details: read-out: Activity
Malme-3M = test: Growth inhibition of human MALME-3M cells assessed as growth inhibition at 10 uM by sulforhodamine B assay; details: read-out: GI
UACC-62 [5] = test: Growth inhibition of human UACC62 cells assessed as growth inhibition at 10 uM by sulforhodamine B assay; details: read-out: GI
TK-10 [6] = test: Growth inhibition of human TK10 cells assessed as cell growth at 10 uM by sulforhodamine B assay; details: read-out: Activity
[7] = Growth inhibition of human Hs 578T cells assessed as growth inhibition at 10 uM by sulforhodamine B assay; details: read-out: GI
BT-549 = test: Growth inhibition of human BT549 cells assessed as growth inhibition at 10 uM by sulforhodamine B assay; details: read-out: GI
SNB-75 = test: Growth inhibition of human SNB75 cells assessed as cell growth at 10 uM by sulforhodamine B assay; details: read-out: Activity
UACC-62 [8] = test: Growth inhibition of human UACC62 cells assessed as cell growth at 10 uM by sulforhodamine B assay; details: read-out: Activity
NCI-H23 [9] = test: Growth inhibition of human NCI-H23 cells assessed as cell growth at 10 uM by sulforhodamine B assay; details: read-out: Activity
IGROV-1 [10] = test: Growth inhibition of human IGROV1 cells assessed as cell growth at 10 uM by sulforhodamine B assay; details: read-out: Activity
SK-MEL-5 = test: Growth inhibition of human SK-MEL-5 cells assessed as cell growth at 10 uM by sulforhodamine B assay; details: read-out: Activity
NCI-H23 [11] = test: Growth inhibition of human NCI-H23 cells assessed as growth inhibition at 10 uM by sulforhodamine B assay; details: read-out: GI
HOP-62 = test: Growth inhibition of human HOP62 cells assessed as cell growth at 10 uM by sulforhodamine B assay; details: read-out: Activity
786-0 [12] = test: Growth inhibition of human 786-0 cells assessed as cell growth at 10 uM by sulforhodamine B assay; details: read-out: Activity
A498 = test: Growth inhibition of human A498 cells assessed as growth inhibition at 10 uM by sulforhodamine B assay; details: read-out: GI
SW-620 = test: Growth inhibition of human SW620 cells assessed as growth inhibition at 10 uM by sulforhodamine B assay; details: read-out: GI
[13] = Growth inhibition of human NCI-ADR-RES cells assessed as growth inhibition at 10 uM by sulforhodamine B assay; details: read-out: GI
DU-145 = test: Growth inhibition of human DU145 cells assessed as cell growth at 10 uM by sulforhodamine B assay; details: read-out: Activity
MCF7 = test: Growth inhibition of human MCF7 cells assessed as cell growth at 10 uM by sulforhodamine B assay; details: read-out: Activity
PC-3 = test: Growth inhibition of human PC3 cells assessed as cell growth at 10 uM by sulforhodamine B assay; details: read-out: Activity
SF-295 = test: Growth inhibition of human SF295 cells assessed as cell growth at 10 uM by sulforhodamine B assay; details: read-out: Activity
T47D = test: Growth inhibition of human T47D cells assessed as cell growth at 10 uM by sulforhodamine B assay; details: read-out: Activity
TK-10 [14] = test: Growth inhibition of human TK10 cells assessed as growth inhibition at 10 uM by sulforhodamine B assay; details: read-out: GI
SR [15] = test: Growth inhibition of human SR cells assessed as cell growth at 10 uM by sulforhodamine B assay; details: read-out: Activity
HCT-15 = test: Growth inhibition of human HCT15 cells assessed as growth inhibition at 10 uM by sulforhodamine B assay; details: read-out: GI
ACHN = test: Growth inhibition of human ACHN cells assessed as growth inhibition at 10 uM by sulforhodamine B assay; details: read-out: GI
SK-MEL-2 = test: Growth inhibition of human SK-MEL-2 cells assessed as cell growth at 10 uM by sulforhodamine B assay; details: read-out: Activity
NCI-H460 [16] = test: Growth inhibition of human NCI-H460 cells assessed as cell growth at 10 uM by sulforhodamine B assay; details: read-out: Activity
MOLT-4 = test: Growth inhibition of human MOLT4 cells assessed as cell growth at 10 uM by sulforhodamine B assay; details: read-out: Activity
HL-60(TB) = test: Growth inhibition of human HL-60(TB) cells assessed as cell growth at 10 uM by sulforhodamine B assay; details: read-out: Activity
MDA-MB-435 = test: Growth inhibition of human MDA-MB-435 cells assessed as cell growth at 10 uM by sulforhodamine B assay; details: read-out: Activity
IGROV-1 [17] = test: Growth inhibition of human IGROV1 cells assessed as growth inhibition at 10 uM by sulforhodamine B assay; details: read-out: GI
HOP-92 [18] = test: Growth inhibition of human HOP92 cells assessed as growth inhibition at 10 uM by sulforhodamine B assay; details: read-out: GI
HOP-92 [19] = test: Growth inhibition of human HOP92 cells assessed as cell growth at 10 uM by sulforhodamine B assay; details: read-out: Activity
OVCAR-5 = test: Growth inhibition of human OVCAR5 cells assessed as cell growth at 10 uM by sulforhodamine B assay; details: read-out: Activity
U-251 = test: Growth inhibition of human U251 cells assessed as growth inhibition at 10 uM by sulforhodamine B assay; details: read-out: GI
OVCAR-4 = test: Growth inhibition of human OVCAR4 cells assessed as cell growth at 10 uM by sulforhodamine B assay; details: read-out: Activity
HCT-116 [20] = test: Growth inhibition of human HCT116 cells assessed as cell growth at 10 uM by sulforhodamine B assay; details: read-out: Activity
UO-31 = test: Growth inhibition of human UO31 cells assessed as growth inhibition at 10 uM by sulforhodamine B assay; details: read-out: GI
NCI-H322M = test: Growth inhibition of human NCI-H322M cells assessed as cell growth at 10 uM by sulforhodamine B assay; details: read-out: Activity

COc1cc(/C=C2\C[C@]3(C)[C@H]4CC=C5[C@@H]6CC(C)(C)C[C@@H](O)[C@]6(C(=O)O)CC[C@@]5(C)[C@]4(C)CC[C@H]3C(C)(C)C2=O)ccc1O
inhibition of growth at 10 µM (HCT-116 [1]): 15.2% | inhibition of growth at 10 µM (RXF 393): < 10% | inhibition of growth at 10 µM (SR [2]): 12.9% | inhibition of growth at 10 µM (NCI-H460 [3]): < 10% | growth at 10 µM (CCRF-CEM): 82% | inhibition of growth at 10 µM (786-0 [4]): < 10% | growth at 10 µM (COLO 205): 94.8% | inhibition of growth at 10 µM (A549): 28.2% | inhibition of growth at 10 µM (SK-MEL-28): < 10% | growth at 10 µM (SNB-19): 97% | inhibition of growth at 10 µM (Malme-3M): 18.9% | inhibition of growth at 10 µM (UACC-62 [5]): 25% | growth at 10 µM (TK-10 [6]): 116% | inhibition of growth at 10 µM [7]: < 10% | inhibition of growth at 10 µM (BT-549): < 10% | growth at 10 µM (SNB-75): 82.1% | growth at 10 µM (UACC-62 [8]): 75% | growth at 10 µM (NCI-H23 [9]): 85% | growth at 10 µM (IGROV-1 [10]): 97.8% | growth at 10 µM (SK-MEL-5): 88.1% | inhibition of growth at 10 µM (NCI-H23 [11]): 15% | growth at 10 µM (HOP-62): 96.9% | growth at 10 µM (786-0 [12]): 102% | inhibition of growth at 10 µM (A498): < 10% | inhibition of growth at 10 µM (SW-620): < 10% | inhibition of growth at 10 µM [13]: < 10% | growth at 10 µM (DU-145): 107% | growth at 10 µM (MCF7): 77.5% | growth at 10 µM (PC-3): 72.2% | growth at 10 µM (SF-295): 76.5% | growth at 10 µM (T47D): 81.1% | inhibition of growth at 10 µM (TK-10 [14]): < 10% | growth at 10 µM (SR [15]): 87.1% | inhibition of growth at 10 µM (HCT-15): 23.5% | inhibition of growth at 10 µM (ACHN): 14.4% | growth at 10 µM (SK-MEL-2): 100% | growth at 10 µM (NCI-H460 [16]): 102% | growth at 10 µM (MOLT-4): 63.3% | growth at 10 µM (HL-60(TB)): 71.1% | growth at 10 µM (MDA-MB-435): 97.7% | inhibition of growth at 10 µM (IGROV-1 [17]): < 10% | inhibition of growth at 10 µM (HOP-92 [18]): 29.1% | growth at 10 µM (HOP-92 [19]): 70.9% | growth at 10 µM (OVCAR-5): 105% | inhibition of growth at 10 µM (U-251): 15.3% | growth at 10 µM (OVCAR-4): 83.8% | growth at 10 µM (HCT-116 [20]): 84.8% | inhibition of growth at 10 µM (UO-31): 24.1% | growth at 10 µM (NCI-H322M): 97.5%
